The values that follow come from patent publication US20240383905A1, “FGFR INHIBITORS AND METHODS OF USE THEREOF” (3H PHARMACEUTICALS CO., LTD., priority 2021, published 2024).

For one assay, the system named is SNU16 cells. Nature of the assay: SNU16 Cancer Cell Line Proliferation Assay (CellTiter-Glo). Format: cell-based. The following applies: Homo sapiens, SNU-16, 72 h. As for the experimental part: Compounds of the present invention were also tested in a SNU16 Cancer Cell Line Proliferation Assay.
SNU16 cells were plated in 96-well clear bottom/white plate(Costar, Cat.No. 3610) at 5000 cells/well in 100 μl medium. Test compounds were prepared in a 10 mM DMSO stock solution and serially diluted into 9 concentrations by 3-fold dilution. 0.5 μl of each concentration of compound was added into the cell culture plates and DMSO as a control. The plates were incubated for 72 h at 37° C. and 5% CO2 incubator. 50 μl CellTiter-Glo reagent (Promega, G7572) was added into each well and then the plates were shaken gently for 10 min at room temperature. Luminescence was read on microplate reader (Molecular Devices, i3x), IC50 values were calculated using Prism 7 (GraphPad).

In the next assay the target is T1, FGFR3 (Homo sapiens, UniProt P22607).
T1 construct: purchased Carna 08-135
T1 sequence (P22607 23-806): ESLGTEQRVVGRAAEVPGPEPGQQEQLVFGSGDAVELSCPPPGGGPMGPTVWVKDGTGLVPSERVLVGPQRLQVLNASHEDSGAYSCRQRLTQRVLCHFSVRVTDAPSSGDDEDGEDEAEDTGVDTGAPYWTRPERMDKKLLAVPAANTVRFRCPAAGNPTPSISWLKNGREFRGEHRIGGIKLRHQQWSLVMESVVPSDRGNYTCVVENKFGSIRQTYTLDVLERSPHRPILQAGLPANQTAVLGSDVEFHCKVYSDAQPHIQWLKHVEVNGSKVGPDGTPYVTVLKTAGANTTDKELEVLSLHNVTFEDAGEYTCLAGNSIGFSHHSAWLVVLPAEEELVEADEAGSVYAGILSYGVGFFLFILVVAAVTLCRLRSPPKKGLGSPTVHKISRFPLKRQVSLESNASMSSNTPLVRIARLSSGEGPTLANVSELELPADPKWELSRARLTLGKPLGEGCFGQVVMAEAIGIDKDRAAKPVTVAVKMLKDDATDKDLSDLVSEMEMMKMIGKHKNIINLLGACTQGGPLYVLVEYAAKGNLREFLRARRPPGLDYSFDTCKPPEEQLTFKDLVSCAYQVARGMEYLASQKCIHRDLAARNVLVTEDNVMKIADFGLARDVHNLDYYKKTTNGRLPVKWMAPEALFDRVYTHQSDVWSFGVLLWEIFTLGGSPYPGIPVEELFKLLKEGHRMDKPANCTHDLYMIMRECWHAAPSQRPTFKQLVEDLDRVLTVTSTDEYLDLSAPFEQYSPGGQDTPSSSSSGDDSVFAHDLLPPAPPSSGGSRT
The assay can be described thus: FGFR3 Biochemical Caliper Assay (KinEASE-TK kit). The conditions noted are these: ratio FGFR3/FGFR2 of the biochemical assay. As for the experimental part:
(§1) Compounds of the present invention were tested in a FGFR1, FGFR2, and FGFR3 Biochemical Caliper Assay. Enzyme activity was monitored using KinEASE-TK kit (CisBio, Cat.No. 62TK0PEC) according to manufacturer's instructions. […] Final enzyme concentration was 0.2 nM for FGFR1 and FGFR3, 0.07 nM for FGFR2. Compounds were prepared in 10 mM DMSO and serially diluted into 10 concentrations by 3-fold dilution. Prior to the initiation of the reaction by adding TK-substrate/ATP mixture, the compounds were incubated with protein for 10 min at RT. […] Plates were quenched by adding TK-antibody-Cryptate and Sa-XL665 mixture. After 60 min in the stop solution, read the signal on microplate reader (Molecular Devices, i3x), excitation of 320 nm and emission of 615 nm and 665 nm with a […]. IC50 values were calculated using Prism 7 (GraphPad).

For the next assay, the target named is T2, FGFR1 (Homo sapiens, UniProt P11362).
T2 construct: purchased Carna 08-133
T2 sequence (P11362 22-822): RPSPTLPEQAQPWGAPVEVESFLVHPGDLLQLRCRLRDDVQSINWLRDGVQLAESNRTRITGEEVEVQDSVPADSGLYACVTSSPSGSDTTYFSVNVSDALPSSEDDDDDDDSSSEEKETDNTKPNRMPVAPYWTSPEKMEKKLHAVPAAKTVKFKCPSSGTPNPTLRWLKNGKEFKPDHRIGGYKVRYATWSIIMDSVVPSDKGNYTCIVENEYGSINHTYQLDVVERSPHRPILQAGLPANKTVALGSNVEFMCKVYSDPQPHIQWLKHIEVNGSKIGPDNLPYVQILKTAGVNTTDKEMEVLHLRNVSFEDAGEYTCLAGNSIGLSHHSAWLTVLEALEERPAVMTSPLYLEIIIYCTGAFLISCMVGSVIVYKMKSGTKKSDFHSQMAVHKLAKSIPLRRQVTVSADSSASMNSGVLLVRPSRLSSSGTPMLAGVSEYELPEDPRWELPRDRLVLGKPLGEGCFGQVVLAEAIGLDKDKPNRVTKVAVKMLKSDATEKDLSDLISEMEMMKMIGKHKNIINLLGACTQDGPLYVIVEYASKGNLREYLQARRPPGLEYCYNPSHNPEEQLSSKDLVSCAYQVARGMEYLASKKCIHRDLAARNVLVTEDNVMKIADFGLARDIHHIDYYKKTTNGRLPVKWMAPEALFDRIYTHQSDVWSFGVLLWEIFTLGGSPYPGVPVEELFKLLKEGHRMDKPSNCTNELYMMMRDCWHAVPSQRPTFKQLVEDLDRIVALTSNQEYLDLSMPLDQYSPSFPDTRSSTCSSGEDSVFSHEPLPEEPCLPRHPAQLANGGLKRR
Nature of the assay: FGFR1 Biochemical Caliper Assay (KinEASE-TK kit). The following applies: ratio FGFR1/FGFR2 of the biochemical assay. As for the experimental part: as §1

The next assay deals with T3, FGFR2 (Homo sapiens, UniProt P21802).
T3 construct: purchased Carna 08-134
T3 sequence (P21802 22-821): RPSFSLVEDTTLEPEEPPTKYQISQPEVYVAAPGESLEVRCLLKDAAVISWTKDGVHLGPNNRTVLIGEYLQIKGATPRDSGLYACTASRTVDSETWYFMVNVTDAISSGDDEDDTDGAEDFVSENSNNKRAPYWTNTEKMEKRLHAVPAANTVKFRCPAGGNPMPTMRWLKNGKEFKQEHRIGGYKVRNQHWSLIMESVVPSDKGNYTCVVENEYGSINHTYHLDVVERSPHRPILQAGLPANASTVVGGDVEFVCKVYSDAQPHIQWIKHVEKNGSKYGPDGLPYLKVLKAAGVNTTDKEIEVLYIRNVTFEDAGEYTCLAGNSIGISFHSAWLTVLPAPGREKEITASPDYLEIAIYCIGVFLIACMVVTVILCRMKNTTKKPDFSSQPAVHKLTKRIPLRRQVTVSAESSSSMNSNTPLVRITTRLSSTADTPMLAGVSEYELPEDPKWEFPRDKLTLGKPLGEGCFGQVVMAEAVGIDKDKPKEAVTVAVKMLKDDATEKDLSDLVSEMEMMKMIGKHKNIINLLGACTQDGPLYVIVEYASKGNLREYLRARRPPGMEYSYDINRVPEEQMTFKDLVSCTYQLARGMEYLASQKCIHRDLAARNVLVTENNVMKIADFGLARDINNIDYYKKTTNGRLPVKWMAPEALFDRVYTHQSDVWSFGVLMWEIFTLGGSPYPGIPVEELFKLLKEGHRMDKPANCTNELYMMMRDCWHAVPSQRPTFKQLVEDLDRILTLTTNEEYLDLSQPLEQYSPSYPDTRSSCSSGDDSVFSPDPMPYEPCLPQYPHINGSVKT
Nature of the assay: FGFR2 Biochemical Caliper Assay (KinEASE-TK kit). The following applies: 0.07 nM FGFR2; compound incubated with protein 10 min, reaction 45 min at RT; read-out: FGFR2 Cliper IC50. As for the experimental part: Compounds of the present invention were tested in a FGFR1, FGFR2, and FGFR3 Biochemical Caliper Assay.
as §1, with “Enzyme” for “Compounds of the present invention were tested in a FGFR1, FGFR2, and FGFR3 Biochemical Caliper Assay. Enzyme”

Turning to `C=CC(=O)Nc1ccc(-n2nc3c(=O)[nH]nc(N)c3c2-c2ccc(Oc3nccc(C)n3)c(OC)c2)cc1` [Compound 134, N-(4-(4-amino-3-(3-methoxy-4-((4-methylpyrimidin-2-yl)oxy)phenyl)-7-oxo-6,7-dihydro-2H-pyrazolo[3,4-d]pyridazin-2-yl)phenyl)acrylamide], the IC50 was greater than 50 nM in the assay with SNU16 cells and less than 5 nM at FGFR2. For the same molecule, the “Selectivity FGFR3/FGFR2” value on FGFR3 was “A+ (Selectivity of FGFR3/FGFR2 greater or equal to 150)”. Also, at FGFR1, the “Selectivity FGFR1/FGFR2” value is given as “C (Selectivity of FGFR1/FGFR2 less than 200 but greater than or equal to 100)”.

For the molecule `C=CC(=O)Nc1ccc(-c2nn3ncnc(N)c3c2-c2ccc(Oc3cccc(C)n3)c(F)c2)cc1` [Compound 366], the IC50 in the assay with SNU16 cells was no more than 10 nM; on FGFR2 it was less than 5 nM. The “Selectivity FGFR3/FGFR2” value on FGFR3 is “A+ (Selectivity of FGFR3/FGFR2 greater or equal to 150)”. Further, at FGFR1, the “Selectivity FGFR1/FGFR2” value is listed as “A+ (Selectivity of FGFR1/FGFR2 greater or equal to 500)”.

Take `C=CC(=O)Nc1ccc(-c2nn3ncnc(N)c3c2-c2ccc(C(=O)NCC(F)(F)F)c(OC)c2)c(F)c1` [Compound 86, 4-(6-(4-acrylamido-2-fluorophenyl)-4-aminopyrazolo[5,1-f] [1,2,4]triazin-5-yl)-2-methoxy-N-(2,2,2-trifluoroethyl)benzamide]: the IC50 in the assay with SNU16 cells was no more than 10 nM; on FGFR2 it was less than 5 nM. For the same molecule, on FGFR3, the “Selectivity FGFR3/FGFR2” value is given as “B (Selectivity of FGFR3/FGFR2 less than 100 but greater than or equal to 25)”. Besides, the “Selectivity FGFR1/FGFR2” value at FGFR1 is reported as “A+ (Selectivity of FGFR1/FGFR2 greater or equal to 500)”.

Regarding `C=CC(=O)Nc1ccc(-c2nn3ncnc(N)c3c2-c2ccc(C(=O)NC3CC(F)C3)c(OC)c2)cc1` (stereo not shown) [Compound 184, 4-(6-(4-acrylamidophenyl)-4-aminopyrazolo[5,1-f][1,2,4]triazin-5-yl)-N-(3-fluorocyclobutyl)-2-methoxybenzamide], the IC50 in the assay on SNU16 cells is no more than 10 nM; at FGFR2, less than 5 nM. Further, the “Selectivity FGFR3/FGFR2” value at FGFR3 was “A+ (Selectivity of FGFR3/FGFR2 greater or equal to 150)”. The “Selectivity FGFR1/FGFR2” value at FGFR1 is recorded as “A (Selectivity of FGFR1/FGFR2 less than 500 but greater than or equal to 300)”.

Turning to `C=CC(=O)Nc1ccc(-c2c(-c3ccc(NC(=O)C4CC4)c(OC)c3)c3c(N)ncc(C#N)c3n2C)cc1` [Compound 237], the figures for the IC50 with SNU16 cells and on FGFR2 were no more than 10 nM and 5 to 10 nM, respectively. Moreover, the “Selectivity FGFR3/FGFR2” value at FGFR3 is given as “A+ (Selectivity of FGFR3/FGFR2 greater or equal to 150)”. Also, on FGFR1, the “Selectivity FGFR1/FGFR2” value is listed as “B (Selectivity of FGFR1/FGFR2 less than 300 but greater than or equal to 200)”.

For `C=C(F)C(=O)Nc1ccc(-c2nn3ncnc(N)c3c2-c2ccc(Oc3cccc(C)n3)c(F)c2)c(C)c1` [Compound 439, N-(4-(4-amino-5-(3-fluoro-4-((6-methylpyridin-2-yl)oxy)phenyl)pyrazolo [5,1-f][1,2,4]triazin-6-yl)-3-methylphenyl)-2-fluoroacrylamide], the half-inhibitory concentration (IC50) is no more than 10 nM in the assay with SNU16 cells and less than 5 nM at FGFR2. Besides, the “Selectivity FGFR3/FGFR2” value at FGFR3 was “B (Selectivity of FGFR3/FGFR2 less than 100 but greater than or equal to 25)”. In addition, the “Selectivity FGFR1/FGFR2” value at FGFR1 was “C (Selectivity of FGFR1/FGFR2 less than 200 but greater than or equal to 100)”.

As to `C=CC(=O)Nc1ccc(-c2[nH]c3c(C#N)cnc(N)c3c2-c2ccc(C(=O)NCC(F)(F)F)c(OC)c2)cc1` [Compound 248], the figures for the IC50 in the assay on SNU16 cells and at FGFR2 were no more than 10 nM and less than 5 nM, respectively. Besides, on FGFR3, the “Selectivity FGFR3/FGFR2” value is “A+ (Selectivity of FGFR3/FGFR2 greater or equal to 150)”. For the same molecule, the “Selectivity FGFR1/FGFR2” value on FGFR1 is reported as “C (Selectivity of FGFR1/FGFR2 less than 200 but greater than or equal to 100)”.

For `C=CC(=O)Nc1ccc(-c2nn3ncnc(N)c3c2-c2ccc(C(=O)NC3CC3)c(OC)c2)c(OC)c1` [Compound 154, 4-(6-(4-acrylamido-2-methoxyphenyl)-4-aminopyrazolo[5,1-f][1,2,4]triazin-5-yl)-N-cyclopropyl-2-methoxybenzamide], the IC50 is no more than 10 nM with SNU16 cells and less than 5 nM at FGFR2. Further, the “Selectivity FGFR3/FGFR2” value on FGFR3 was “A (Selectivity of FGFR3/FGFR2 less than 150 but greater than or equal to 100)”. The “Selectivity FGFR1/FGFR2” value at FGFR1 is given as “A+ (Selectivity of FGFR1/FGFR2 greater or equal to 500)”.

Consider `C=CC(=O)Nc1ccc(-c2c(-c3ccc(C(=O)NCC(F)(F)F)c(OC)c3)c3c(N)ncc(C#N)c3n2CCOC)cc1` [Compound 318, 4-(2-(4-acrylamidophenyl)-4-amino-7-cyano-1-(2-methoxyethyl)-1H-pyrrolo[3,2-c]pyridin-3-yl)-2-methoxy-N-(2,2,2-trifluoroethyl)benzamide], for which the results for the IC50 with SNU16 cells and on FGFR2 were no more than 10 nM and less than 5 nM, respectively. In addition, on FGFR3, the “Selectivity FGFR3/FGFR2” value is recorded as “A (Selectivity of FGFR3/FGFR2 less than 150 but greater than or equal to 100)”. Also, the “Selectivity FGFR1/FGFR2” value at FGFR1 is reported as “C (Selectivity of FGFR1/FGFR2 less than 200 but greater than or equal to 100)”.

For `C=CC(=O)Nc1ccc(-c2c(-c3ccc(C(=O)NCC4CC4)c(OC)c3)c3c(N)ncc(C#N)c3n2C)cc1` [Compound 170], the IC50 with SNU16 cells was no more than 10 nM; on FGFR2 it was less than 5 nM. The “Selectivity FGFR3/FGFR2” value at FGFR3 was “B (Selectivity of FGFR3/FGFR2 less than 100 but greater than or equal to 25)”. Further, the “Selectivity FGFR1/FGFR2” value on FGFR1 is “A+ (Selectivity of FGFR1/FGFR2 greater or equal to 500)”.

On to `C=CC(=O)Nc1ccc(-c2c(-c3ccc(C(=O)NC4CC4)c(OC)c3)c3c(N)ncc(C#N)c3n2C2CC2)cc1` [Compound 359, 4-(2-(4-acrylamidophenyl)-4-amino-7-cyano-1-cyclopropyl-1H-pyrrolo[3,2-c]pyridin-3-yl)-N-cyclopropyl-2-methoxybenzamide], for which, at FGFR3, the “Selectivity FGFR3/FGFR2” value was “B (Selectivity of FGFR3/FGFR2 less than 100 but greater than or equal to 25)”. The “Selectivity FGFR1/FGFR2” value at FGFR1 was “A+ (Selectivity of FGFR1/FGFR2 greater or equal to 500)”. For the same molecule, the IC50 at FGFR2 was greater than 10 nM.

For the molecule `C=CC(=O)Nc1ccc(-c2nn3ncnc(N)c3c2-c2ccc(Oc3ncc(C)cn3)c(F)c2)cc1` [Compound 376, N-(4-(4-amino-5-(3-fluoro-4-((5-methylpyrimidin-2-yl)oxy)phenyl)pyrazolo [5,1-f][1,2,4]triazin-6-yl)phenyl)acrylamide], the “Selectivity FGFR3/FGFR2” value on FGFR3 is listed as “A+ (Selectivity of FGFR3/FGFR2 greater or equal to 150)”. Further, at FGFR1, the “Selectivity FGFR1/FGFR2” value was “A+ (Selectivity of FGFR1/FGFR2 greater or equal to 500)”. Also, on FGFR2, the IC50 is greater than 10 nM.

Consider `C=C(F)C(=O)Nc1ccc(-c2nn3ncnc(N)c3c2-c2ccc(C(=O)NCC(C)(F)F)c(OC)c2)cc1` [Compound 362, 4-(4-amino-6-(4-(2-fluoroacrylamido)phe-nyl)pyrazolo[5,1-f][1,2,4]triazin-5-yl)-N-(2,2-difluoropropyl)-2-methoxybenzamide], for which the “Selectivity FGFR3/FGFR2” value at FGFR3 was “A (Selectivity of FGFR3/FGFR2 less than 150 but greater than or equal to 100)”. The “Selectivity FGFR1/FGFR2” value at FGFR1 was “A+ (Selectivity of FGFR1/FGFR2 greater or equal to 500)”. Besides, the IC50 at FGFR2 was greater than 10 nM.

For `C=C(F)C(=O)Nc1ccc(-c2[nH]c3c(C#N)cnc(N)c3c2-c2ccc(C(=O)NC3CC3(F)F)c(OC)c2)cc1` (stereo not shown) [Compound 320, 4-(4-amino-7-cyano-2-(4-(2-fluoroacrylamido)phe-nyl)-1H-pyrrolo[3,2-c]pyridin-3-yl)-N-(2,2-difluorocyclopropyl)-2-methoxybenzamide], the “Selectivity FGFR3/FGFR2” value on FGFR3 is reported as “A (Selectivity of FGFR3/FGFR2 less than 150 but greater than or equal to 100)”. In addition, the “Selectivity FGFR1/FGFR2” value on FGFR1 is “C (Selectivity of FGFR1/FGFR2 less than 200 but greater than or equal to 100)”. Further, the IC50 at FGFR2 is less than 5 nM.

Consider `C=CC(=O)Nc1ccc(-c2nn3ncnc(N)c3c2-c2ccc(C(=O)NC3(C#N)CC3)c(OC)c2)cc1` [Compound 268, 4-(6-(4-acrylamidophenyl)-4-aminopyrazolo[5,1-f][1,2,4]triazin-5-yl)-N-(1-cyanocyclopropyl)-2-methoxybenzamide], for which, on FGFR3, the “Selectivity FGFR3/FGFR2” value was “A+ (Selectivity of FGFR3/FGFR2 greater or equal to 150)”. At FGFR1, the “Selectivity FGFR1/FGFR2” value is recorded as “C (Selectivity of FGFR1/FGFR2 less than 200 but greater than or equal to 100)”. Further, the IC50 on FGFR2 was in the range of 5 to 10 nM.
